The text below walks through data of US20090209587A1, “REPAGLINIDE FORMULATIONS” (priority 2008, published 2009).

A value given as a limit tells only on which side of the number the result lay.

The conditions of data set [1]: cited from earlier work.
Data set [2] in a line: Bulk/tapped density (USP Test 616), compressibility index and particle size distribution of repaglinide. Type of data set: physicochemical. The text has this:
The percentages of particles with different sizes that exist in a total powder is the particle size distribution. It is represented in certain ways. Particle size is the maximum dimension of a particle, frequently expressed in μm. Particle size distributions can be expressed in terms of, D10, D50, D90 and D[4,3]. The D10, D50 and D90 represent the 10th, median or the 50th percentile, and the 90th percentile of the particle size distribution, respectively, as measured by volume. That is, the D10, D50, D90 are values of the distribution such that 10%, 50%, or 90% of the particles have a volume of this value or less, or is the percentage of particles smaller than that size. D50 is also known as median diameter of particle. It is one of the important parameters representing characteristics of particles of powders. For a sample, if D50=5 μm, it means that 50% of the particles are smaller than 5 μm. Similarly if D10=5 μm, 10% of the particles are less than or equal to 5 μm, and if D90=5 μm, 90% of the particles have sizes less than or equal to 5 μm. D[4,3] represents the volume moment mean of the particles, or the volume weighted particle size. Densities were determined according to USP Test 616 “Bulk Density and Tapped Density,” and compressibility index is percentage change in volume induced by tapping a sample of fixed mass.

For the molecule `CCOc1cc(CC(=O)N[C@@H](CC(C)C)c2ccccc2N2CCCCC2)ccc1C(=O)O` [Repaglinide, S-(+)-2-Ethoxy-4-(2((3-methyl-1-(2-(1-piperidinyl)phenyl)butyl)amino)2-oxoethyl) benzoic acid], the solubility in methanol result in data set [1] (methanol) is “freely soluble”. Besides, the “solubility in methylene chloride” value in data set [1] (methylene chloride) is “freely soluble”. Besides, the solubility in water entry in data set [1] (water) is recorded as “practically insoluble”. For the same molecule, in data set [2], the “Particle size distribution D10” value is 2 μm, the “Particle size distribution D50” value is recorded as under 4 μm and the “Particle size distribution D90” value is listed as under 7 μm. In data set [2] (USP Test 616), the Bulk density is 0.176 g/mL and the Tapped density worked out at 0.247 g/mL. In data set [2] (percentage change in volume induced by tapping), this molecule registered a Compressibility index of 29.95.
